What was measured:
HMalT (His-tagged MalT) [1] = molecular target: T1, HMalT (His-tagged MalT) (Escherichia coli, UniProt P06993); experiment: limited proteinase K proteolysis protection (arm-sensor hinge), SDS-PAGE quantification, binding isotherm; conditions: 50 mM HEPES pH 8.0, 10.1 mM Mg acetate, 0.44 mM ATP, 25°C; no reducing agent; full saturation assumed at 50 mM; read-out: KD (apparent dissociation constant)
T1 construct: full-length, His-tagged; purified on Ni2+ resin then Superdex 200; monomeric in resting form, multimerizes with maltotriose and ATP
T1 sequence (P06993 1-901): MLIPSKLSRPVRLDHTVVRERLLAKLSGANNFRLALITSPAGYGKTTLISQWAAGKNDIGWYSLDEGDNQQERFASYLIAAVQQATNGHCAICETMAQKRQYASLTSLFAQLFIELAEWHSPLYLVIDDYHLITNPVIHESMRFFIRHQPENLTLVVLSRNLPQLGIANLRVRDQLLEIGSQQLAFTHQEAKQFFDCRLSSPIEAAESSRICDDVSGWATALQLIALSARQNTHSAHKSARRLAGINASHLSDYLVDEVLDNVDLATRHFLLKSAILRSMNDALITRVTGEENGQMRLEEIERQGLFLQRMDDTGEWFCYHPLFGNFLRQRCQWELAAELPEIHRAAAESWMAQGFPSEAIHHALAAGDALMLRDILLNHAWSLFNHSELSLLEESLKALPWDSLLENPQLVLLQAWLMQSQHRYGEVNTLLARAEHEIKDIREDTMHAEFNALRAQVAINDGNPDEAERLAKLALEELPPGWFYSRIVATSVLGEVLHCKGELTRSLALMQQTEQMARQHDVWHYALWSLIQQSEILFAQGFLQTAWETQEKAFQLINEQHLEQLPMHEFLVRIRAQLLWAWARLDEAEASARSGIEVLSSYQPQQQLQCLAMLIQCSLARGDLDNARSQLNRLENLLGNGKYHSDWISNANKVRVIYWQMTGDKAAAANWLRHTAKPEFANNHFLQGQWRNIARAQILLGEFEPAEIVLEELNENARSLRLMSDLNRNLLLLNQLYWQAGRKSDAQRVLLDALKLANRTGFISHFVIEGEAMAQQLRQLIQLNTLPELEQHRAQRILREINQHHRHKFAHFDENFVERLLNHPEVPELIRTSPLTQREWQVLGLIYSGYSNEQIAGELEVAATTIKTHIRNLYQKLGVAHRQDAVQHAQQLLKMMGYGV

[2] = molecular target: T2, HMalT^336-806 (arm-sensor polypeptide) (Escherichia coli, UniProt P06993); experiment: intrinsic tryptophan fluorescence titration, quadratic fit; assay type: binding; conditions: 20 mM Tris-HCl pH 8.0, 0.2 M KCl, 20°C; 1 μM protein; excitation 295 nm, emission 323 nm
T2 construct: gene malT; arm-sensor fragment, residues 336-806, His-tagged; purified on Ni2+ resin then Superdex 200
T2 sequence (P06993 336-806): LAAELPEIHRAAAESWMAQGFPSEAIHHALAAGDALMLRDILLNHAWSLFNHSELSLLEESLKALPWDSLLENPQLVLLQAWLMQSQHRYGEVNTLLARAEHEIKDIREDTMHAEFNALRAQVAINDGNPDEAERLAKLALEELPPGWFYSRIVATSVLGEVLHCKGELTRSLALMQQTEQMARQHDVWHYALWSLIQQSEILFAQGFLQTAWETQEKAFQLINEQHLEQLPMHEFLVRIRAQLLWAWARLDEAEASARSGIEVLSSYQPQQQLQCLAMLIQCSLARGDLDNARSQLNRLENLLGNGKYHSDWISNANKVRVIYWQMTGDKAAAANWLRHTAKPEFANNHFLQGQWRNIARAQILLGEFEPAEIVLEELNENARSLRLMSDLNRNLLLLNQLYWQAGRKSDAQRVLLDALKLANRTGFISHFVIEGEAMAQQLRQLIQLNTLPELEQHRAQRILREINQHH

HMalT (His-tagged MalT) [3] = molecular target: T3, HMalT (His-tagged MalT) (Escherichia coli, UniProt P06993, Q70C/E395C); experiment: limited proteinase K proteolysis protection (arm-sensor hinge), SDS-PAGE quantification, binding isotherm; conditions: 50 mM HEPES pH 8.0, 10.1 mM Mg acetate, 0.44 mM ATP, 25°C; no reducing agent: oxidized form, C70-C395 disulfide locks NOD closed; full saturation assumed at 50 mM; read-out: KD (apparent dissociation constant)
T3 construct: full-length, His-tagged; purified on Ni2+ resin then Superdex 200; monomeric in resting form, multimerizes with maltotriose and ATP
T3 sequence (P06993 whole entry Q70C/E395C): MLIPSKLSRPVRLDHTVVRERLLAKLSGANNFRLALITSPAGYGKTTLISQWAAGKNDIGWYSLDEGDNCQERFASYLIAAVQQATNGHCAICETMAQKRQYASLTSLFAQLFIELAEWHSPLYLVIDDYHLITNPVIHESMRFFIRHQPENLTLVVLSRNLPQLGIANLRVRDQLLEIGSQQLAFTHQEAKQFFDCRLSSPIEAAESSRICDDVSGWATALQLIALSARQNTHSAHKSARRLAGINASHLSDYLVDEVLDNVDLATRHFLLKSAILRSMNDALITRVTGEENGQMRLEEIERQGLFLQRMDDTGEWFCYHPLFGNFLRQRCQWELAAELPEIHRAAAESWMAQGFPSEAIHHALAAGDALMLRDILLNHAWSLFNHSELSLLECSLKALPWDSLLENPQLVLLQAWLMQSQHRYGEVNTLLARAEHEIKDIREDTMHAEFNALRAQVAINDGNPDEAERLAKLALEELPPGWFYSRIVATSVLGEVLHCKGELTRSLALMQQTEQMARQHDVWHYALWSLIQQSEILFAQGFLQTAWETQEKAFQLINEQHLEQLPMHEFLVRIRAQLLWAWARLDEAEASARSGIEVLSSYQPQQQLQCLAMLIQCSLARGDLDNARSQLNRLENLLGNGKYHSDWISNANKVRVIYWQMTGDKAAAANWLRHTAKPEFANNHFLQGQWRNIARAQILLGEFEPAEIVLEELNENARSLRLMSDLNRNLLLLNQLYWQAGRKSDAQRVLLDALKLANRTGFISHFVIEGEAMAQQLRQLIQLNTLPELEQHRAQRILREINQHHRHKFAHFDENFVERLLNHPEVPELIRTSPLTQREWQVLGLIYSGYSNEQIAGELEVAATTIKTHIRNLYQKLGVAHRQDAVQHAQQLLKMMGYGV

HMalT (His-tagged MalT) [4] = molecular target: T1, HMalT (His-tagged MalT); experiment: filter-binding assay, dissociation of [α-32P]ADP complex chased by cold ADP; conditions: labelled compound; resting form, no maltotriose; buffer B pH 8.0, 10 mM Mg acetate, 25°C; 1 mM cold ADP chase
HMalT (His-tagged MalT) [5] = molecular target: T3, HMalT (His-tagged MalT); experiment: as above; conditions: labelled compound; oxidized form (C70-C395 disulfide), no DTT, with or without 20 mM maltotriose; buffer B pH 8.0, 10 mM Mg acetate, 25°C; 1 mM cold ADP chase

| Compound | Kd (HMalT (His-tagged MalT) [1]) [µM] | Kd [2] [µM] | Kd (HMalT (His-tagged MalT) [3]) [µM] | t1/2 (HMalT (His-tagged MalT) [4]) [h] | t1/2 (HMalT (His-tagged MalT) [5]) [h] |
| --- | --- | --- | --- | --- | --- |
| OC[C@H]1O[C@H](O[C@H]2[C@H](O)[C@@H](O)[C@@H](O[C@H]3[C@H](O)[C@@H](O)C(O)O[C@@H]3CO)O[C@@H]2CO)[C@H](O)[C@@H](O)[C@@H]1O (some centres unmarked) [maltotriose] | 131 ± 12 | 2.7 ± 1.2 | 2600 ± 500 | – | – |
| Nc1ncnc2c1ncn2[C@@H]1O[C@H](COP(=O)(O)OP(=O)(O)O)[C@@H](O)[C@H]1O [ADP] | – | – | – | 1.98 ± 0.183 | > 8.33 |
